Data as given in PubChem BioAssay AID1745861.

Target: Solute carrier family 22 member 3 (Homo sapiens) (UniProt O75751)
Assay: OCT3 (SLC22A3) uptake inhibitors, dose response, HEK293 JumpIn overexpressing cells, impedance, MPP+ (AID 1745861)
Details: impedance (xCELLigence)

Solute carrier family 22 member 3 (Homo sapiens), sequence (O75751 whole entry, looked up): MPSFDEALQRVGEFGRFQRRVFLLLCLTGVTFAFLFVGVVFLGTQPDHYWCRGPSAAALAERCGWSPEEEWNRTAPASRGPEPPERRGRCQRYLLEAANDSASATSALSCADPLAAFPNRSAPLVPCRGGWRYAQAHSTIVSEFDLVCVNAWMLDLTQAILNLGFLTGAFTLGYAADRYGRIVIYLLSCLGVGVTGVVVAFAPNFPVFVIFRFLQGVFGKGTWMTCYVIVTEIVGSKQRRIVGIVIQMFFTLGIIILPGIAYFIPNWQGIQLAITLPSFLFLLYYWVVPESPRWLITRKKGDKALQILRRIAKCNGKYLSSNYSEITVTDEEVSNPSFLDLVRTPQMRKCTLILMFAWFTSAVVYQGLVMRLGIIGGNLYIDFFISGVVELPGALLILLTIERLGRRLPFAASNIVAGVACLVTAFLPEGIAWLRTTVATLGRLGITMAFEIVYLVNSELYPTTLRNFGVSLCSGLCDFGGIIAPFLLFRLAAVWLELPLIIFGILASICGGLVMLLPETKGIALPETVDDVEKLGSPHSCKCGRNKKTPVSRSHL

Row | Compound | IC50 [nM]
1 | CCN1/C(=C/c2ccc3ccccc3[n+]2CC)C=Cc2ccccc21 | 400
2 | C[n+]1ccc(-c2ccccc2)cc1 | 199000
3 | C=CC(=O)N1CCC[C@@H](n2nc(-c3ccc(Oc4ccccc4)cc3)c3c(N)ncnc32)C1 | 7900
4 | Cc1cn(-c2cc(NC(=O)c3ccc(C)c(Nc4nccc(-c5cccnc5)n4)c3)cc(C(F)(F)F)c2)cn1 | 500
5 | C[C@]12C[C@H](O)[C@H]3[C@@H](CCC4=CC(=O)CC[C@@]43C)[C@@H]1CC[C@@H]2C(=O)CO | 1600
